Measurements published in patent US20080234263A1, “Quinazoline Derivatives” (priority 2003, published 2008).

Key:
EGFR tyrosine kinase = molecular target: T1, EGFR tyrosine kinase (Homo sapiens, UniProt P00533); assay: Protein tyrosine kinase phosphorylation assay, Test (a); format: biochemical; details: recombinant intracellular fragment of EGFR, ATP at Km concentration; read-out: IC50 (nM) Test (a) (Inhibition of EGFR tyrosine kinase protein phosphorylation)
T1 construct: Recombinant intracellular fragments of EGFR, erbB2 and erbB4; made in house; host or cells: baculovirus/Sf21 insect cells (cleared lysate used)
Protocol: Recombinant intracellular fragments of EGFR, erbB2 and erbB4 (accession numbers X00588, X03363 and L07868 respectively) were cloned and expressed in the baculovirus/Sf21 system. Lysates were prepared from these cells by treatment with ice-cold lysis buffer (20 mM N-2-hydroxyethylpiperizine-N′-2-ethanesulfonic acid (HEPES) pH7.5, 150 mM NaCl, 10% glycerol, 1% Triton X-100, 1.5 mM MgCl2, 1 mM ethylene glycol-bis(β-aminoethyl ether) N′,N′,N′,N′-tetraacetic acid (EGTA), plus protease inhibitors and then cleared by centrifugation.
Specifically, Maxisorb™ 96-well immunoplates were coated with synthetic peptide (0.2 μg of peptide in a 100 μl phosphate buffered saline (PBS) solution and incubated at 4° C. overnight).
The immobilised phospho-peptide product of the reaction was detected by immunological methods. Firstly, plates were incubated for 90 minutes at room temperature with anti-phosphotyrosine primary antibodies that were raised in the mouse (4G10 from Upstate Biotechnology). Following extensive washing, plates were treated with Horseradish Peroxidase (HRP) conjugated sheep anti-mouse secondary antibody (NXA931 from Amersham) for 60 minutes at room temperature.
Kinase inhibition for a given compound was expressed as an IC50 value. […] The range of phosphorylation was calculated from the positive (vehicle plus ATP) and negative (vehicle minus ATP) control values.

[1] = tested on: KB cells (human naso-pharangeal carcinoma cells); assay: EGFR driven KB cell proliferation assay, Test (b); format: cell-based; details: 96 h, EGF 1 ng/ml, incubation for 4 days, MTT
Protocol: This assay measures the ability of a test compound to inhibit the proliferation of KB cells (human naso-pharangeal carcinoma obtained from the American Type Culture Collection (ATCC).
Following adhesion to the plate, the cells are treated with or without EGF (final concentration of 1 ng/ml) and with or without compound at a range of concentrations in dimethylsulfoxide (DMSO) (0.1% final) before incubation for 4 days. Following the incubation period, cell numbers were determined by addition of 50 μl of 3-(4,5-Dimethylthiazol-2-yl)-2,5-diphenyltetrazolium bromide ([…]) (stock 5 mg/ml) for 2 hours. MTT solution was then tipped off, the plate gently tapped dry and the cells dissolved upon the addition of 100 μl of DMSO.
Absorbance of the solubilised cells was read at 540 nm using a Molecular Devices ThermoMax microplate reader. Inhibition of proliferation was expressed as an IC50 value. […] The range of proliferation was calculated from the positive (vehicle plus EGF) and negative (vehicle minus EGF) control values.

T1 sequence (P00533 669-1210 limits assumed): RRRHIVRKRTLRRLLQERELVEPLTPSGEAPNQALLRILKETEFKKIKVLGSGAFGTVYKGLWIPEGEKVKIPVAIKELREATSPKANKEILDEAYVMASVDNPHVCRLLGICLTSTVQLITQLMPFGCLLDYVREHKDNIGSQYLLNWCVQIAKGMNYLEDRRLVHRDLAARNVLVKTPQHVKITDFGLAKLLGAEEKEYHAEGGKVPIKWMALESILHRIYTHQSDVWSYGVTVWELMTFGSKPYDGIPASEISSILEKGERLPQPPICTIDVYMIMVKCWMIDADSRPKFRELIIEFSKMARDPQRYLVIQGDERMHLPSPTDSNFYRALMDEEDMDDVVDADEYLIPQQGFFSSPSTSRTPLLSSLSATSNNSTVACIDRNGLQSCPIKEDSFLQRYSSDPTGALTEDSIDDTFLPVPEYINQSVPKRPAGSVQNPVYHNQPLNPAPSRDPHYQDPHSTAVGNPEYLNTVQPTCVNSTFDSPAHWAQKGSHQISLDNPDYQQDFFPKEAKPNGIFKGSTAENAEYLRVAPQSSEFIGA

Compound: COc1cc2ncnc(Nc3ccc(F)c(Cl)c3)c2cc1CN1CCC[C@@H]1C(=O)NCC#N [Example 20, 1-({4-[(3-Chloro-4-fluorophenyl)amino]-7-methoxyquinazolin-6-yl}methyl)-N-(cyanomethyl)-D-prolinamide]
- IC50 (EGFR tyrosine kinase): 64 nM
- IC50 [1]: 143 nM

Compound: COc1cc2ncnc(Nc3cccc(Cl)c3F)c2cc1CN1CSC[C@H]1C(N)=O [Example 24, (4R)-3-({4-[(3-Chloro-2-fluorophenyl)amino]-7-methoxyquinazolin-6-yl}methyl)-1,3-thiazolidine-4-carboxamide]
- IC50 (EGFR tyrosine kinase): 20 nM
- IC50 [1]: 50 nM

Compound: COCCN1CCN(Cc2cc3c(Nc4cccc(Cl)c4F)ncnc3cc2OC)C(C(N)=O)C1 (stereo not drawn) [Example 37, 1-({4-[(3-Chloro-2-fluorophenyl)amino]-7-methoxyquinazolin-6-yl}methyl)-4-(2-methoxyethyl)piperazine-2-carboxamide]
- IC50 (EGFR tyrosine kinase): 67 nM
- IC50 [1]: 160 nM
